Laboratory results: patent US9925263B2, “Liquid pharmaceutical formulations for injection comprising procaine and uses thereof” (EAGLE BIOLOGICS, INC., priority 2013, dated 2018)
Where a name gives a salt, the structure may show the parent alone. Read-outs that look alike come from different tables or passages of the source.

How the values were obtained:
REMICADE® [1] = assay: Viscosity of aqueous solutions of […]® with viscosity-lowering agents; type: physicochemical; conditions: 25° C.
Protocol: (§1) (unless otherwise indicated).
An extrapolated zero-shear viscosity was determined from a plot of absolute viscosity versus shear rate.
(§2) Following reconstitution, the viscosity of each solution was measured using the microfluidic viscometer as described in previous examples. The solutions were then back-loaded into 1 mL BD insulin syringes with 27, 29, or 31 gauge fixed needles. The force required to extrude the concentrated […]® solutions was then measured using an Instron at a rate of displacement equivalent to a fluid flow rate of 3 mL/min. The expelled solution was collected from the syringe and analyzed by size-exclusion chromatography.

[2] = test system: biosimilar AVASTIN®, TYSABRI®, HERCEPTIN®, biosimilar ERBITUX®, REMICADE®; conditions: thiamine HCl 0.1-0.25 M vs 0.25 M PB; Table 33
Protocol: (§4) All viscosities of well-mixed aqueous mAb solutions were measured using either a mVROC microfluidic viscometer (RheoSense) or a DV2T cone and plate viscometer (Brookfield; “C & P”) after a 5 minute equilibration at 25° C. […] The mVROC viscometer was equipped with an “A” or “B” chip, each manufactured with a 50 micron channel. Typically, 0.10 mL of protein solution was back-loaded into a gastight microlab instrument syringe (Hamilton; 100 μL), affixed to the chip, and measured at multiple flow rates, approximately 20%, 40%, and 60% of the maximum pressure for each chip. […] An average absolute viscosity and standard deviation was then calculated from at least these three measurements. The C & P viscometer was equipped with a CPE40 or CPE52 spindle (cone angle of 0.8° and 3.0°, respectively) and 0.50 mL samples were measured at multiple shear rates between 2 and 400 s^−1. Specifically, samples were measured for 30 seconds each at 22.58, 24.38, 26.25, 28.13, 30, 31.88, 45, 67.5, 90, 112.5, 135, 157.5, 180, 202.5, 247, 270, 292.5, 315, 337.5, 360, 382, 400 s^−1, starting at a shear rate that gave at least 10% torque, and continuing until instrument torque reached 100%. An extrapolated zero-shear viscosity was then determined from a plot of dynamic viscosity versus shear rate for the samples measured on a DV2T cone and plate viscometer. […]

HERCEPTIN® = assay: Viscosity of aqueous solutions of HERCEPTIN® with viscosity-lowering agents; type: physicochemical; conditions: 25° C.
SIMPONI ARIA® = conditions: […] thiamine HCl vs […] phosphate buffer; FIG. 9
Protocol: as §4

biosimilar AVASTIN® = assay: Viscosity of aqueous solutions of biosimilar AVASTIN® with viscosity-lowering agents; type: physicochemical; conditions: for Magnitude of viscosity-lowering effect (replacement of PB with CSAL): 0.25 M
Protocol: as §1
The protein was formulated to contain either 0.25 M phosphate buffer or 0.25 M CSAL.
(§3) Subsequently, the appropriate amount of viscosity-lowering agent was added to result in a final viscosity-lowering agent concentration of 0.15-0.35 M upon reconstitution.
The viscosity-lowering agent(s) were added in an amount sufficient to give concentration upon reconstitution as specified below. In cases of combinations of agents, the concentration of each component is 0.15 M. The protein solutions were then freeze-dried.

TYSABRI® = assay: Viscosity of aqueous solutions of TYSABRI® with viscosity-lowering agents; type: physicochemical; conditions: 244 mg/mL TYSABRI; excipient 0.1 M; 25° C.
Protocol: (§5) All viscosities of well-mixed aqueous mAb solutions were measured using either a mVROC microfluidic viscometer (RheoSense) or a DV2T cone and plate viscometer (Brookfield; “C & P”) after a 5 minute equilibration at 25° C. […] The mVROC viscometer was equipped with an “A” or “B” chip, each manufactured with a 50 micron channel. Typically, 0.10 mL of protein solution was back-loaded into a gastight microlab instrument syringe (Hamilton; 100 μL), affixed to the chip, and measured at multiple flow rates, approximately 20%, 40%, and 60% of the maximum pressure for each chip. […] An average absolute viscosity and standard deviation was then calculated from at least these three measurements. The C & P viscometer was equipped with a CPE40 or CPE52 spindle (cone angle of 0.8° and 3.0°, respectively) and 0.50 mL samples were measured at multiple shear rates between 2 and 400 s^−1. Specifically, samples were measured for 30 seconds each at 22.58, 24.38, 26.25, 28.13, 30, 31.88, 45, 67.5, 90, 112.5, 135, 157.5, 180, 202.5, 247, 270, 292.5, 315, 337.5, 360, 382, 400 s^−1, starting at a shear rate that gave at least 10% torque, and continuing until instrument torque reached 100%. An extrapolated zero-shear viscosity was then determined from a plot of dynamic viscosity versus shear rate for the samples measured on a DV2T cone and plate viscometer. The extrapolated zero-shear viscosities reported are the average and standard deviation of at least three measurements.
(§6) Viscosities were measured using a RheoSense mVROC microfluidic viscometer equipped with an “A” or “B” chip.
(§7) Subsequently, the aqueous drug product was purified, buffer exchanged, concentrated, dried, reconstituted, and analyzed as described in the same manner. Viscosities reported were measured on a RheoSense mVROC microfluidic viscometer.

[3] = test system: Crohn's and ulcerative colitis patients; conditions: studies evaluating long-term clinical outcomes; cited from earlier work
REMICADE® [4] = assay: Monomer content of […]® solutions by size exclusion chromatography; type: physicochemical; conditions: 0.25M agent
Protocol: Biophysical properties of solutions of […]® formulated with 0.25 M CSAA were assessed over 90 days. Samples of […]® formulated with 0.25 M CSAA were prepared as described in Example 1 above.
as §2

REMICADE® [5] = assay: Syringe extrusion force of concentrated […]® solutions (Instron); type: physicochemical; conditions: 1 mL BD insulin syringe, 3 mL/min, REMICADE 224-230 mg/mL, 0.25M agent
Protocol: as §2

biosimilar RITUXAN® = assay: Viscosity of aqueous solutions of biosimilar RITUXAN® with viscosity-lowering agents;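 also: absolute viscosity of aqueous antibody solutions determined by microfluidic viscometry (mVROC chip, 50 micron channel) at several flow rates after 5 min equilibration, mean of at least three readings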
Protocol: All viscosities of well-mixed aqueous mAb solutions were measured using either a mVROC microfluidic viscometer (RheoSense) or a DV2T cone and plate viscometer (Brookfield; “C & P”) after a 5 minute equilibration at 25° C. […] The mVROC viscometer was equipped with an “A” or “B” chip, each manufactured with a 50 micron channel. Typically, 0.10 mL of protein solution was back-loaded into a gastight microlab instrument syringe (Hamilton; 100 μL), affixed to the chip, and measured at multiple flow rates, approximately 20%, 40%, and 60% of the maximum pressure for each chip. […] An average absolute viscosity and standard deviation was then calculated from at least these three measurements. The C & P viscometer was equipped with a CPE40 or CPE52 spindle (cone angle of 0.8° and 3.0°, respectively) and 0.50 mL samples were measured at multiple shear rates between 2 and 400 s^−1. […] An extrapolated zero-shear viscosity was then determined from a plot of dynamic viscosity versus shear rate for the samples measured on a DV2T cone and plate viscometer. The extrapolated zero-shear viscosities reported are the average and standard deviation of at least three measurements.
as §6

ARZERRA® = assay: Viscosity of aqueous solutions of ARZERRA® with viscosity-lowering agents; type: physicochemical; conditions: 0.25M agent, 25° C., pH 7.0
Text: as §1

branded AVASTIN® = assay: Viscosity of aqueous solutions of branded AVASTIN®; type: physicochemical; conditions: 205 ± 5 mg/mL mAb
Protocol: as §1, §3

bovine gamma globulin = assay: Viscosity of aqueous gamma globulin solutions on two viscometers; type: physicochemical; conditions: without CSAL, or with 0.25M CSAL (label CSAL), 25° C., pH 7.0
Protocol: as §1
Aqueous solutions containing 220 mg/mL […]® and 0.25 M CSAA were prepared as described above Example 1. The viscosities at 25° C. and pH 7.0 are reported in Table 29 as extrapolated zero-shear viscosities from cone and plate viscometer measurements and as absolute viscosities measured with a microfluidic viscometer. […] An extrapolated zero-shear viscosity was determined from a plot of absolute viscosity versus shear rate.
In order to compare a broader range of viscosities and protein concentrations, aqueous solutions of a model antibody, bovine gamma globulin, were prepared with and without 0.25 M CSAL. The viscosities were measured as described above at protein concentrations ranging from 110 mg/mL to 310 mg/mL.

biosimilar ERBITUX® = assay: Viscosity of aqueous solutions of biosimilar ERBITUX® with viscosity-lowering agents
Protocol: All viscosities of well-mixed aqueous mAb solutions were measured using either a mVROC microfluidic viscometer (RheoSense) or a DV2T cone and plate viscometer (Brookfield; “C & P”) after a 5 minute equilibration at 25° C. (unless otherwise indicated). The mVROC viscometer was equipped with an “A” or “B” chip, each manufactured with a 50 micron channel. Typically, 0.10 mL of protein solution was back-loaded into a gastight microlab instrument syringe (Hamilton; 100 μL), affixed to the chip, and measured at multiple flow rates, approximately 20%, 40%, and 60% of the maximum pressure for each chip. […] An average absolute viscosity and standard deviation was then calculated from at least these three measurements. The C & P viscometer was equipped with a CPE40 or CPE52 spindle (cone angle of 0.8° and 3.0°, respectively) and 0.50 mL samples were measured at multiple shear rates between 2 and 400 s^−1. […] An extrapolated zero-shear viscosity was then determined from a plot of dynamic viscosity versus shear rate for the samples measured on a DV2T cone and plate viscometer. The extrapolated zero-shear viscosities reported are the average and standard deviation of at least three measurements.
First, Polysorbate 80 was removed using DETERGENT-OUT® TWEEN® Medi Columns (G-Biosciences). […] The collected protein solution was freeze-dried. The dried protein cakes, containing protein and buffer salts or agent, were reconstituted to a final volume of 0.15-1.3 mL. […] Reported protein concentrations represent the range of all protein samples included in each Table or Figure. Specifically, reported values are the median plus or minus half the range. Extrapolated zero-shear using an experimentally determined extinction coefficient of 1.4 L/g·cm and viscosities reported were measured on a DV2T cone and plate viscometer.
The final concentration of CSAL upon reconstitution in an aqueous CSAL solution ranged from 0.25 M to 0.50 M.
Specifically, 20 mM solutions of the viscosity-lowering agents of interest were used for buffer exchange, and the lyophilized cakes were reconstituted to 0.25 M of each viscosity-lowering agent. […] The sample was first aliquoted. […] The dried protein cakes, containing protein and viscosity-lowering agent (and a negligible amount of buffer salts) were reconstituted to a final volume of approximately 0.10 mL and viscosity-lowering agent concentration as previously described.
First, Polysorbate was removed from the commercially obtained mAb solutions.
Specifically, 20 mM solutions of the salts of interest were used for buffer exchange, and the lyophilized cakes were reconstituted to contain 0.25 M of each agent. Viscosities were measured using either a RheoSense mVROC microfluidic viscometer equipped with an “A” or “B” chip or a DV2T cone and plate viscometer.
as §7

[6] = 155 ± 5 mg/mL mAb, pH 7.0, 25° C., [CSAL] 0.25 M
[7] = 155 ± 5 mg/mL mAb, pH 7.0, 25° C., [CSAL] 0.38 M
[8] = 155 ± 5 mg/mL mAb, pH 7.0, 25° C., [CSAL] 0.50 M

Protocol for ENBREL®: as §5
ENBREL® obtained commercially and containing pharmaceutical excipients (Mannitol, Sucrose, Tromethamine) was purified, buffer exchanged, concentrated, dried, reconstituted, and analyzed as described in Example 1 above (using the extinction coefficient of 0.96 L/g·cm at 280 nm).

## Cc1ncc(C[n+]2csc(CCO)c2C)c(N)n1 [Thiamine HCl]
REMICADE® [1]; 178 mg/mL REMICADE, excipient […]
  Viscosity: 40.7 ± 0.3 cP
ENBREL®; 212 ± 7 mg/mL ENBREL
  Viscosity: 141 ± 3
ENBREL®; 250 ± 3 mg/mL ENBREL
  Viscosity: 305 ± 7
ENBREL®; 271 ± 0 mg/mL ENBREL
  Viscosity: 626 ± 32
ENBREL®; […] thiamine HCl vs […] PB
  Viscosity reduction: up to 2 fold
[2]
  Viscosity reduction for each mAb: greater than 4 fold
HERCEPTIN®; 218 mg/mL HERCEPTIN, excipient 0.1 M
  Viscosity: 41.6 ± 0.5 cP
HERCEPTIN®; 245 mg/mL HERCEPTIN, 0.10M agent
  Viscosity: 41.5 ± 0.5 cP
SIMPONI ARIA®
  Viscosity gradient (increase in viscosity with mAb concentration): the viscosity gradient is reduced
Biosimilar AVASTIN®; 190 mg/mL mAb, excipient 0.1 M, 25° C.
  Viscosity: 31.5 ± 1.7 cP
Biosimilar AVASTIN®; 225 mg/mL mAb, excipient 0.25 M, 25° C.
  Viscosity: 53.3 ± 6.8 cP
TYSABRI®
  Viscosity: 43.4 ± 0.7 cP

## Vedolizumab: mAb being developed by Millennium Pharmaceuticals for ulcerative colitis and Crohn's disease
[3]
  Patients achieving clinical remission: ~60%

## camphorsulfonic acid 1-(3-aminopropyl)-2-methyl-1H-imidazole [CSAAPMI]
REMICADE® [4]; expelled through 27 gauge needle, REMICADE 224-230 mg/mL (per agent)
  % Monomer: 99.1 ± 0.0%
REMICADE® [4]; expelled through 29 gauge needle, REMICADE 224-230 mg/mL (per agent)
  % Monomer: 99.0 ± 0.0%
REMICADE® [4]; expelled through 31 gauge needle, REMICADE 224-230 mg/mL (per agent)
  % Monomer: 99.0 ± 0.0%
REMICADE® [4]; pre-syringe, REMICADE 220-230 mg/mL (per agent)
  % Monomer: 99.2 ± 0.32%
REMICADE® [5]; 27 gauge needle
  Syringe Force: 21.9 N
REMICADE® [5]; 29 gauge needle
  Syringe Force: 30.4 N
REMICADE® [5]; 31 gauge needle
  Syringe Force: 38.4 N
Biosimilar RITUXAN®; 202 ± 2 mg/mL RITUXAN, 0.25M agent, 25° C., pH 7.0
  Viscosity: 38.7 ± 0.7
Biosimilar RITUXAN®; pH 7
  Viscosity: 78.6 ± 2.0
Biosimilar AVASTIN®; ~230 mg/mL mAb, vs PB, Table 12
  Viscosity reduction: approximately 5 fold
ARZERRA®; 245 ± 4 mg/mL ARZERRA
  Viscosity: 53.6 ± 0.6 cP
ARZERRA®; 274 ± 10 mg/mL ARZERRA
  Viscosity: 98.9 ± 0.7 cP

## camphorsulfonic acid lysine [CSAL]
REMICADE® [1]; 166 ± 4 mg/mL REMICADE, 0.25M agent, pH 7.0
  Viscosity: 27.4 ± 0.2 cP
REMICADE® [1]; 222 ± 6 mg/mL REMICADE, 0.25M agent, pH 7.0
  Viscosity: 95.3 ± 1.1 cP
Branded AVASTIN®; 0.25 M CSAL vs phosphate buffer
  Fold reduction in viscosity: 3.3 fold
Branded AVASTIN®; phosphate buffer or 0.25M CSAL, 25° C., pH 7.0
  Viscosity, Branded AVASTIN ®: 46.7 ± 0.9 cP
Bovine gamma globulin; 170 mg/mL gamma globulin, C & P
  Viscosity: 10.3 ± 1.0 cP
Bovine gamma globulin; 170 mg/mL gamma globulin, microfluidic
  Viscosity: 10.6 ± 0.1 cP
Bovine gamma globulin; 260 mg/mL gamma globulin, C & P
  Viscosity: 93.5 ± 1.2 cP
Bovine gamma globulin; 260 mg/mL gamma globulin, microfluidic
  Viscosity: 85.3 ± 0.3 cP
Bovine gamma globulin; 310 mg/mL gamma globulin, C & P
  Viscosity: 223 ± 1 cP
Bovine gamma globulin; 310 mg/mL gamma globulin, microfluidic
  Viscosity: 203 ± 2 cP
Biosimilar AVASTIN®; 80 mg/mL mAb, 25° C., pH 7.0
  Magnitude of viscosity-lowering effect (replacement of PB with CSAL): 2.1 fold
Biosimilar AVASTIN®; 210 mg/mL mAb, 0.25 M agent, 25° C., pH 7.0
  Viscosity: 63.0 ± 1.8 cP
Biosimilar AVASTIN®; 0.25 M CSAL vs original excipients, 101 ± 5 mg/mL mAb, pH 7.0, 25° C.
  Fold decrease in viscosity in the presence of CSAL: 1.5 fold
Biosimilar AVASTIN®; 0.25 M CSAL vs phosphate buffer, 205 ± 5 mg/mL mAb
  Fold reduction in viscosity: 1.8 fold
Biosimilar AVASTIN®; 101 ± 5 mg/mL mAb, pH 7.0, 25° C., formulation per label (CSAL 0.25M)
  Viscosity: 4.03 ± 0.24 cP
Biosimilar AVASTIN®; 200 ± 5 mg/mL mAb, pH 7.0, 25° C., [Salt] 0.25 M of anion, C & P viscometer
  Viscosity: 54.9 ± 0.9 cP
Biosimilar AVASTIN®; 205 ± 5 mg/mL mAb, phosphate buffer or 0.25M CSAL, 25° C., pH 7.0
  Viscosity, Biosimilar AVASTIN ®: 54.9 ± 0.9 cP
Biosimilar AVASTIN®; 228 ± 5 mg/mL mAb, agent 0.25 M, 25° C., pH 7.0
  Viscosity: 113 ± 0 cP
Biosimilar AVASTIN®; 230 ± 5 mg/mL mAb, pH 7.0, 0.25M, 20° C.
  Viscosity: 152 ± 0 cP
Biosimilar AVASTIN®; 230 ± 5 mg/mL mAb, pH 7.0, 0.25M, 25° C.
  Viscosity: 107 ± 4 cP
Biosimilar AVASTIN®; 230 ± 5 mg/mL mAb, pH 7.0, 0.25M, 30° C.
  Viscosity: 95.5 ± 5.4 cP
Biosimilar AVASTIN®; 230 ± 5 mg/mL mAb, pH 7.0, […], 20° C.
  Viscosity: 157 ± 0 cP
Biosimilar AVASTIN®; 230 ± 5 mg/mL mAb, pH 7.0, […], 25° C.
  Viscosity: 113 ± 0 cP
Biosimilar AVASTIN®; 230 ± 5 mg/mL mAb, pH 7.0, […], 30° C.
  Viscosity: 91.7 ± 3.3 cP
Biosimilar AVASTIN®; 230±5 mg/mL mAb, 25° C., pH 7.0
  Magnitude of viscosity-lowering effect (replacement of PB with CSAL): 3.7 fold
Biosimilar ERBITUX®; 0.25 M CSAL vs original excipients, 80 ± 5 mg/mL mAb, pH 7.0, 25° C.
  Fold decrease in viscosity in the presence of CSAL: 2.7 fold
Biosimilar ERBITUX®; 80 ± 5 mg/mL mAb, pH 7.0, 25° C., formulation per label (CSAL 0.25M)
  Viscosity: 3.08 ± 0.18 cP
Biosimilar ERBITUX®; 100±5 mg/mL mAb, 0.25 M, 25° C., pH 7.0
  Magnitude of viscosity-lowering effect (replacement of PB with CSAL): 1.1 fold
Biosimilar ERBITUX®; 155 ± 5 mg/mL mAb, pH 7.0, 25° C., [CSAL] 0 M
  Fold viscosity reduction (compared to no CSAL present): 1 fold
Biosimilar ERBITUX®; 155 ± 5 mg/mL mAb, pH 7.0, 25° C., [CSAL] 0 M (0.25 M phosphate buffer control)
  Viscosity: 154 ± 0 cP
Biosimilar ERBITUX®; [6]
  Fold viscosity reduction (compared to no CSAL present): 8.4 fold
  Viscosity: 18.3 ± 0.0 cP
Biosimilar ERBITUX®; [7]
  Fold viscosity reduction (compared to no CSAL present): 10.3 fold
  Viscosity: 14.9 ± 0.1 cP
Biosimilar ERBITUX®; [8]
  Fold viscosity reduction (compared to no CSAL present): 12.1 fold
  Viscosity: 12.7 ± 0.1 cP
Biosimilar ERBITUX®; 222 ± 5 mg/mL mAb, pH 7.0, 0.25M agent, 25° C.
  Viscosity: 109 ± 1 cP
Biosimilar ERBITUX®; 225 ± 5 mg/mL mAb, pH 7.0, 0.25M agent, 20° C.
  Viscosity: 166 ± 2 cP
Biosimilar ERBITUX®; 225 ± 5 mg/mL mAb, pH 7.0, 0.25M agent, 25° C.
  Viscosity: 109 ± 1 cP
Biosimilar ERBITUX®; 225 ± 5 mg/mL mAb, pH 7.0, 0.25M agent, 30° C.
  Viscosity: 78.4 ± 1.5 cP
Biosimilar ERBITUX®; pH 7
  Magnitude of viscosity-lowering effect (replacement of PB with CSAL): 10.3 fold
Biosimilar ERBITUX®; vs phosphate buffer, 222 ± 5 mg/mL mAb, pH 7.0, 0.25M agent, 25° C.
  Fold Reduction: 10.4 fold
